Several values for one entry are separate records, joined by “and”; a condition that tells them apart may be missing. Equal values may be shown once. Inconclusive results and toxic doses are left out.
Tested on: L1210 leukemia ip in BDF1 mice, survival T/C
Experiment: NCI In Vivo Anticancer Drug Screen. Data for tumor model L1210 Leukemia (intraperitoneal) in B6D2F1 (BDF1) mice
Details: endpoint: mean survival time, higher = longer survival
In short: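 Transplantable tumor model; survival measured in treated vs vehicle control mice. Value = treated/control.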

[1] = dose: 12.5 mg/kg/injection, schedule: Q01DX009 (ip), vehicle: saline
[2] = dose: 12.5 mg/kg/injection, schedule: Q04DX003 (ip), vehicle: saline
[3] = dose: 25.0 mg/kg/injection, schedule: Q01DX009 (ip), vehicle: saline
[4] = dose: 25.0 mg/kg/injection, schedule: Q04DX003 (ip), vehicle: saline
[5] = dose: 50.0 mg/kg/injection, schedule: Q04DX003 (ip), vehicle: saline
[6] = dose: 100.0 mg/kg/injection, schedule: Q04DX003 (ip), vehicle: saline
[7] = dose: 100.0 mg/kg/injection, schedule: Q01DX009 (ip), vehicle: Klucel (hydroxypropylcellulose) (HPC)
[8] = dose: 100.0 mg/kg/injection, schedule: Q04DX003 (ip), vehicle: Klucel (hydroxypropylcellulose) (HPC)
[9] = dose: 200.0 mg/kg/injection, schedule: Q01DX009 (ip), vehicle: Klucel (hydroxypropylcellulose) (HPC)
[10] = dose: 200.0 mg/kg/injection, schedule: Q04DX003 (ip), vehicle: Klucel (hydroxypropylcellulose) (HPC)
[11] = dose: 400.0 mg/kg/injection, schedule: Q01DX009 (ip), vehicle: Klucel (hydroxypropylcellulose) (HPC)
[12] = dose: 400.0 mg/kg/injection, schedule: Q04DX003 (ip), vehicle: Klucel (hydroxypropylcellulose) (HPC)
[13] = dose: 200.0 mg/kg/injection, schedule: Q04DX003 (ip), vehicle: saline
[14] = dose: 400.0 mg/kg/injection, schedule: Q04DX003 (ip), vehicle: saline
[15] = dose: 100.0 mg/kg/injection, schedule: Q04DX003 (ip), vehicle: saline with Tween-80
[16] = dose: 200.0 mg/kg/injection, schedule: Q04DX003 (ip), vehicle: saline with Tween-80
[17] = dose: 100.0 mg/kg/injection, schedule: Q01DX001 (ip), vehicle: Klucel (hydroxypropylcellulose) (HPC)
[18] = dose: 200.0 mg/kg/injection, schedule: Q01DX001 (ip), vehicle: Klucel (hydroxypropylcellulose) (HPC)
[19] = dose: 400.0 mg/kg/injection, schedule: Q01DX001 (ip), vehicle: Klucel (hydroxypropylcellulose) (HPC)
[20] = dose: 100.0 mg/kg/injection, schedule: Q01DX001 (ip), vehicle: saline with Tween-80

## CC(C)(C)C1CC[N-]CC1.CC(C)(C)C1CC[N-]CC1.[Cl][Pt+2]([Cl])([Cl])[Cl]
[1]
  T/C: 96 % of control
[2]
  T/C: 97 % of control
[3]
  T/C: 92 % of control
[4]
  T/C: 90 % of control
[5]
  T/C: 93 % of control and 99 % of control
[6]
  T/C: 94 % of control and 97 % of control

## O=C1O/C(=C(\C(=O)O)c2ccccc2)C(O)=C1c1ccccc1
[7]
  T/C: 113 % of control
[8]
  T/C: 103 % of control
[9]
  T/C: 101 % of control
[10]
  T/C: 97 % of control
[11]
  T/C: 102 % of control
[12]
  T/C: 108 % of control

## CC(=O)Nc1ccc[n+](C)c1
[6]
  T/C: 108 % of control
[13]
  T/C: 105 % of control
[14]
  T/C: 100 % of control

## c1ccc(-c2cscc2-c2ccccc2)cc1
[3]
  T/C: 105 % of control
dose: 50.0 mg/kg/injection, schedule: Q01DX009 (ip), vehicle: saline
  T/C: 96 % of control
dose: 100.0 mg/kg/injection, schedule: Q01DX009 (ip), vehicle: saline
  T/C: 100 % of control
dose: 200.0 mg/kg/injection, schedule: Q01DX009 (ip), vehicle: saline
  T/C: 97 % of control
dose: 400.0 mg/kg/injection, schedule: Q01DX009 (ip), vehicle: saline
  T/C: 98 % of control

## [Cl][Pt+2][Cl].[NH-]C(CCCN)C(=O)O.[NH-]C(CCCN)C(=O)O (centres undefined)
dose: 50.0 mg/kg/injection, schedule: Q04DX003 (ip), vehicle: saline with Tween-80
  T/C: 103 % of control
[15]
  T/C: 104 % of control and 115 % of control
[16]
  T/C: 97 % of control and 102 % of control

## CC(=O)OC1CCC2(C)C(=CCC3C2CCC2(C)C3CC(Br)C2C(C)=O)C1 (centres undefined)
[8]
  T/C: 107 % of control
[10]
  T/C: 88 % of control
[12]
  T/C: 103 % of control

## C/C(=N\N)C(=O)c1ccccc1
[17]
  T/C: 103 % of control
[8]
  T/C: 98 % of control
[18]
  T/C: 93 % of control
[10]
  T/C: 94 % of control
[19]
  T/C: 101 % of control
[12]
  T/C: 96 % of control

## Cc1cc(N(CCCCl)CCCCl)ccc1C=Nc1cc(Br)c(O)c(Br)c1
[8]
  T/C: 94 % of control
[10]
  T/C: 95 % of control
[12]
  T/C: 96 % of control

## CCOC(=O)c1ccc(NC(=S)NC(=O)/C=C/c2ccccc2)cc1
dose: 100.0 mg/kg/injection, schedule: Q01DX009 (ip), vehicle: saline with Tween-80
  T/C: 92 % of control
[15]
  T/C: 91 % of control
dose: 200.0 mg/kg/injection, schedule: Q01DX009 (ip), vehicle: saline with Tween-80
  T/C: 100 % of control
[16]
  T/C: 94 % of control
dose: 400.0 mg/kg/injection, schedule: Q01DX009 (ip), vehicle: saline with Tween-80
  T/C: 97 % of control
dose: 400.0 mg/kg/injection, schedule: Q04DX003 (ip), vehicle: saline with Tween-80
  T/C: 101 % of control

## COc1cc2ccncc2cc1Oc1ccc(C)cc1
dose: 50.0 mg/kg/injection, schedule: Q01DX001 (ip), vehicle: other
  T/C: 97 % of control
dose: 100.0 mg/kg/injection, schedule: Q01DX001 (ip), vehicle: other
  T/C: 104 % of control
dose: 200.0 mg/kg/injection, schedule: Q01DX001 (ip), vehicle: other
  T/C: 97 % of control

## CCNC(=O)c1cc2cccc(OC)c2oc1=N
[6]
  T/C: 105 % of control
[13]
  T/C: 97 % of control
[14]
  T/C: 90 % of control

## C[N+]1(C)CCCC1
dose: 6.25 mg/kg/injection, schedule: Q01DX009 (ip), vehicle: saline
  T/C: 103 % of control
[1]
  T/C: 102 % of control
[2]
  T/C: 86 % of control
[3]
  T/C: 109 % of control
[4]
  T/C: 91 % of control
[5]
  T/C: 95 % of control

## CC12CCC(C(C(=O)C3C(=O)C4(C)CCC3C4(C)C)C1=O)C2(C)C (centres undefined)
[17]
  T/C: 102 % of control
[18]
  T/C: 103 % of control
[19]
  T/C: 113 % of control

## CCCCn1cnc2c(=S)nc[nH]c21
dose: 5.0 mg/kg/injection, schedule: Q01DX Z (ip), vehicle: carboxymethylcellulose (CMC)
  T/C: 98 % of control
dose: 8.0 mg/kg/injection, schedule: Q01DX Z (ip), vehicle: carboxymethylcellulose (CMC)
  T/C: 103 % of control
dose: 10.0 mg/kg/injection, schedule: Q01DX Z (ip), vehicle: carboxymethylcellulose (CMC)
  T/C: 102 % of control
dose: 16.0 mg/kg/injection, schedule: Q01DX Z (ip), vehicle: carboxymethylcellulose (CMC)
  T/C: 103 % of control
dose: 16.0 mg/kg/injection, schedule: Q01DX Z (ip), vehicle: saline
  T/C: 94 % of control
dose: 16.0 mg/kg/injection, schedule: Q01DX Z (oral), vehicle: carboxymethylcellulose (CMC)
  T/C: 109 % of control
dose: 20.0 mg/kg/injection, schedule: Q01DX Z (ip), vehicle: carboxymethylcellulose (CMC)
  T/C: 104 % of control
dose: 32.0 mg/kg/injection, schedule: Q01DX009 (ip), vehicle: saline
  T/C: 101 % of control
dose: 32.0 mg/kg/injection, schedule: Q01DX Z (ip), vehicle: carboxymethylcellulose (CMC)
  T/C: 120 % of control
dose: 32.0 mg/kg/injection, schedule: Q01DX Z (ip), vehicle: saline
  T/C: 97 % of control
dose: 32.0 mg/kg/injection, schedule: Q01DX Z (oral), vehicle: carboxymethylcellulose (CMC)
  T/C: 112 % of control
dose: 40.0 mg/kg/injection, schedule: Q01DX Z (ip), vehicle: carboxymethylcellulose (CMC)
  T/C: 112 % of control
dose: 64.0 mg/kg/injection, schedule: Q01DX009 (ip), vehicle: saline
  T/C: 115 % of control and 121 % of control
dose: 64.0 mg/kg/injection, schedule: Q01DX Z (ip), vehicle: saline
  T/C: 123 % of control
dose: 64.0 mg/kg/injection, schedule: Q01DX Z (oral), vehicle: carboxymethylcellulose (CMC)
  T/C: 117 % of control
dose: 86.0 mg/kg/injection, schedule: Q02DX010 (ip), vehicle: carboxymethylcellulose (CMC)
  T/C: 117 % of control
dose: 88.0 mg/kg/injection, schedule: Q02DX010 (ip), vehicle: carboxymethylcellulose (CMC)
  T/C: 116 % of control
dose: 100.0 mg/kg/injection, schedule: Q01DX015 (ip), vehicle: carboxymethylcellulose (CMC)
  T/C: 178 % of control
dose: 160.0 mg/kg/injection, schedule: Q01DX015 (ip), vehicle: carboxymethylcellulose (CMC)
  T/C: 152 % of control
dose: 225.0 mg/kg/injection, schedule: Q01DX015 (ip), vehicle: carboxymethylcellulose (CMC)
  T/C: 124 % of control
dose: 240.0 mg/kg/injection, schedule: Q01DX015 (ip), vehicle: carboxymethylcellulose (CMC)
  T/C: 116 % of control
dose: 256.0 mg/kg/injection, schedule: Q01DX009 (ip), vehicle: saline
  T/C: 121 % of control
dose: 256.0 mg/kg/injection, schedule: Q01DX Z (ip), vehicle: saline
  T/C: 100 % of control
dose: 320.0 mg/kg/injection, schedule: Q01DX015 (ip), vehicle: carboxymethylcellulose (CMC)
  T/C: 92 % of control
dose: 335.0 mg/kg/injection, schedule: Q01DX015 (ip), vehicle: carboxymethylcellulose (CMC)
  T/C: 98 % of control

## C=C1CC(=O)N(c2ccc(Cl)cc2)C1=O
dose: 25.0 mg/kg/injection, schedule: Q01DX001 (ip), vehicle: saline with Tween-80
  T/C: 93 % of control
dose: 50.0 mg/kg/injection, schedule: Q01DX001 (ip), vehicle: saline with Tween-80
  T/C: 98 % of control
[20]
  T/C: 97 % of control

## O=C(Nc1ccc(Cl)cc1)Nc1cccc2ccccc12
[7]
  T/C: 91 % of control
[8]
  T/C: 94 % of control
[9]
  T/C: 89 % of control
[10]
  T/C: 94 % of control
[11]
  T/C: 97 % of control
[12]
  T/C: 93 % of control

## O=C(OC1COC(O)C(OC(=O)c2ccccc2)C1OC(=O)c1ccccc1)c1ccccc1 (centres undefined)
[20]
  T/C: 101 % of control
dose: 200.0 mg/kg/injection, schedule: Q01DX001 (ip), vehicle: saline with Tween-80
  T/C: 93 % of control

## CCN(CC)CCN1C(=O)C(C)C=C(C)C=C1C (centres undefined)
dose: 9.0 mg/kg/injection, schedule: Q04DX003 (ip), vehicle: other
  T/C: 97 % of control
dose: 18.0 mg/kg/injection, schedule: Q04DX003 (ip), vehicle: other
  T/C: 92 % of control
dose: 19.0 mg/kg/injection, schedule: Q01DX009 (ip), vehicle: other
  T/C: 105 % of control
dose: 38.0 mg/kg/injection, schedule: Q01DX009 (ip), vehicle: other
  T/C: 105 % of control
dose: 75.0 mg/kg/injection, schedule: Q01DX001 (ip), vehicle: other
  T/C: 100 % of control
dose: 75.0 mg/kg/injection, schedule: Q01DX009 (ip), vehicle: other
  T/C: 105 % of control
dose: 75.0 mg/kg/injection, schedule: Q04DX003 (ip), vehicle: other
  T/C: 91 % of control

— PubChem BioAssay AID248 (DTP/NCI, 2004)
